Data as given in the supplement of paper PMC4862054.

Tests used:
Settings in all cases: incubation time: 72 h
HCC1143 [1] = assay: normalised response (% of control), CellTox Green; higher = less cell death (100 = DMSO, 0 = benzethonium chloride kill control)
Method in brief: (§1)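 Values are normalised signals, each belonging to one concentration of the series. Breast cancer cells (20 µl suspension) were seeded into 384-well plates with compound at 5 concentrations in 10-fold steps over a compound-specific 10,000-fold range and incubated 72 h. Readouts were CellTox Green fluorescence (485/520 nm), then CellTiter-Glo luminescence after 10 min at room temperature, with each plate set to 0.1 % DMSO as 100 and a positive kill control as 0.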

HCC1937 [2] = assay: as above
Method in brief: as §1

CAL-148 [3] = assay: as above
Method in brief: as §1

MDA-MB-231 [4] = assay: as above
Method in brief: as §1

BT-474 [5] = assay: as above
Method in brief: as §1

MFM-223 [6] = assay: as above
Method in brief: as §1

DU-4475 [7] = assay: as above
Method in brief: as §1

MCF-10A [8] = assay: as above
Method in brief: as §1

BT-549 [9] = assay: as above
Method in brief: as §1

HCC1599 [10] = assay: as above
Method in brief: as §1

MDA-MB-468 [11] = assay: as above
Method in brief: as §1

MDA-MB-436 [12] = assay: as above
Method in brief: as §1

CAL-51 [13] = assay: as above
Method in brief: as §1

CAL-85-1 [14] = assay: as above
Method in brief: as §1

CAL-120 [15] = assay: as above
Method in brief: as §1

MDA-MB-453 [16] = assay: as above
Method in brief: as §1

SK-BR-3 = assay: normalised response (% of control), CellTiter-Glo; higher = more viable cells (100 = DMSO, 0 = benzethonium chloride kill control)
Experimental: (§2)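 DSRT, 72 h incubation, CellTox Green / CellTiter-Glo readout. Signal is normalised to DMSO and benzethonium chloride controls. Value is the normalised response at dose 3.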

HCC1143 [17] = assay: as above
Experimental: as §2

HCC1937 [18] = assay: as above
Experimental: as §2

CAL-148 [19] = assay: as above
Experimental: as §2

MDA-MB-231 [20] = assay: as above
Experimental: as §2

BT-474 [21] = assay: as above
Experimental: as §2

MFM-223 [22] = assay: as above
Experimental: as §2

DU-4475 [23] = assay: as above
Experimental: as §2

MCF-10A [24] = assay: as above
Experimental: as §2

BT-549 [25] = assay: as above
Experimental: as §2

HCC1599 [26] = assay: as above
Experimental: as §2

MDA-MB-468 [27] = assay: as above
Experimental: as §2

MDA-MB-436 [28] = assay: as above
Experimental: as §2

HDQ-P1 [29] = assay: as above
Experimental: as §2

CAL-51 [30] = assay: as above
Experimental: as §2

Hs578T [31] = assay: as above
Experimental: as §2

CAL-85-1 [32] = assay: as above
Experimental: as §2

CAL-120 [33] = assay: as above
Experimental: as §2

MDA-MB-453 [34] = assay: as above
Experimental: as §2

HDQ-P1 [35] = assay: normalised response (% of control), CellTox Green; higher = less cell death (100 = DMSO, 0 = benzethonium chloride kill control)
Method in brief: as §1

Hs578T [36] = assay: as above
Method in brief: as §1

| Structure (SMILES) | normalised response (HCC1143 [1]) [%] | normalised response (HCC1937 [2]) [%] | normalised response (CAL-148 [3]) [%] | normalised response (MDA-MB-231 [4]) [%] | normalised response (BT-474 [5]) [%] | normalised response (MFM-223 [6]) [%] | normalised response (DU-4475 [7]) [%] | normalised response (MCF-10A [8]) [%] | normalised response (BT-549 [9]) [%] | normalised response (HCC1599 [10]) [%] | normalised response (MDA-MB-468 [11]) [%] | normalised response (MDA-MB-436 [12]) [%] | normalised response (CAL-51 [13]) [%] | normalised response (CAL-85-1 [14]) [%] | normalised response (CAL-120 [15]) [%] | normalised response (MDA-MB-453 [16]) [%] | normalised response (SK-BR-3) [%] | normalised response (HCC1143 [17]) [%] | normalised response (HCC1937 [18]) [%] | normalised response (CAL-148 [19]) [%] | normalised response (MDA-MB-231 [20]) [%] | normalised response (BT-474 [21]) [%] | normalised response (MFM-223 [22]) [%] | normalised response (DU-4475 [23]) [%] | normalised response (MCF-10A [24]) [%] | normalised response (BT-549 [25]) [%] | normalised response (HCC1599 [26]) [%] | normalised response (MDA-MB-468 [27]) [%] | normalised response (MDA-MB-436 [28]) [%] | normalised response (HDQ-P1 [29]) [%] | normalised response (CAL-51 [30]) [%] | normalised response (Hs578T [31]) [%] | normalised response (CAL-85-1 [32]) [%] | normalised response (CAL-120 [33]) [%] | normalised response (MDA-MB-453 [34]) [%] | normalised response (HDQ-P1 [35]) [%] | normalised response (Hs578T [36]) [%] |
| --- | --- | --- | --- | --- | --- | --- | --- | --- | --- | --- | --- | --- | --- | --- | --- | --- | --- | --- | --- | --- | --- | --- | --- | --- | --- | --- | --- | --- | --- | --- | --- | --- | --- | --- | --- | --- | --- |
| COc1cc2/c(=N/c3ccc(Br)cc3F)nc[nH]c2cc1OCC1CCN(C)CC1 [Vandetanib] (10 nM) | 91.8 | 84.5 | 89.6 | 85.3 | 95.4 | 99.1 | 91.9 | 83.3 | 98.2 | 81.1 | 104 | 55 | 95.5 | 101 | 97 | 80.8 | 82.3 | 92.1 | 94.6 | 89 | 92.5 | 87.1 | 86.5 | 93.2 | 78.3 | 98 | 85.7 | 87 | 97.2 | 91.7 | 87.1 | 94.5 | 90.2 | 95.7 | 72.2 |  |  |
| CCOC(=O)CCNc1cc(N2CCc3ccccc3CC2)nc(-c2ccccn2)n1 [GSK-J4] (1000 nM) |  | 92.9 | 97.7 | 112 | 100 | 86.8 | 106 | 103 | 97.1 | 95.1 | 110 | 84.1 | 86.2 | 113 | 97 | 102 | 98.5 | 103 | 84.7 | 92.7 | 95.8 | 99.7 | 93.6 | 99.5 | 106 | 47.3 | 100 | 67.7 | 89.8 | 95.4 | 57.2 | 98.3 | 96.9 | 105 | 70.3 | 89.9 | 80.2 |
